Structures can show the parent of a compound that is named as a salt.
Target: T1, IRAK4 (Homo sapiens, UniProt Q9NWZ3)
T1 sequence (Q9NWZ3 1-460): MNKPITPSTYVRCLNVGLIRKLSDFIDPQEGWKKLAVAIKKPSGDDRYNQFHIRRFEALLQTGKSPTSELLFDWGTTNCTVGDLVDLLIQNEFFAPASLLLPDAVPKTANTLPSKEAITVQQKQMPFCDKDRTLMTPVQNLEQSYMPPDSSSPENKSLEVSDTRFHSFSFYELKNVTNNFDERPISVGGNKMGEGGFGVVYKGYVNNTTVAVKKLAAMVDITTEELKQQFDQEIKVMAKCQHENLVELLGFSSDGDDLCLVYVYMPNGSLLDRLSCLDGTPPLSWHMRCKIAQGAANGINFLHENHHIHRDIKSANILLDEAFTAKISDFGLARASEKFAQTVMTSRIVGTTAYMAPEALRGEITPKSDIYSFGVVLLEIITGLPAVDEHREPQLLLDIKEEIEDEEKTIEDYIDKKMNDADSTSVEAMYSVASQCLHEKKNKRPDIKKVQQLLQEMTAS
Assay: ALE THP1 HTRF (IRAK4 degradation in THP1 cells, HTRF with anti-IRAK4 antibodies)
Type: cell-based
Parameters: THP1 Homogeneous Time Resolved Fluorescence (ALE THP1 HTRF) Procedure; endogenous in cells; host or cells: THP1
Conditions: THP1 cell lysate; for DC50: read-out: ALE THP1 HTRF EC50
Procedure: Cell culture media was prepared in a tissue culture hood in a sterile environment by adding 10% FBS and 1% Penicillin Streptomycin to 500 mL no phenol red RPMI 1640 media. The media was filtered through a Nalgene Bottle Top Filter and stored at 4° C.
For Homogenous Time Resolved Fluorescence (HTRF) assays, a Cisbio HTRF kit was used, which included: Lysis Buffer #1 4×, Blocking Reagent #3 100×, 20× Antibody 1 (Anti-IRAK4 d2), 20× Antibody 2 (Anti-IRAK4 k), and Detection Buffer.
4× Lysis Buffer was stored at 4° C. For use as 1× Lysis buffer, the 4× solution was diluted with de-ionized water (distilled water, Gibco Cat. #15230279) and 100× Blocking Reagent in a 1:3:0.04 volume ratio.
20× Antibody Solution aliquots were stored at −80° C. and the Detection Buffer was stored at 4° C. For use as a 1× Antibody Solution, the 20× Antibody Solution aliquot was diluted with Detection Buffer in a 1:19 volume ratio.
Cells were lysed at room temperature for 45 min with shaking. A BCA protein assay was performed and normalization was conducted to the desired total protein concentration with 1× lysis buffer. Next, 1× Antibody Solutions were prepared by adding 380 μL Detection Buffer to 20 μL 20× Antibody Solution aliquots and mixing well. 1× Antibody Solutions were combined 1:1 and briefly vortexed. For control wells, 20 μL 1× anti IRAK4-k Antibody Solution was saved. The 384-well plate (ProxiPlate-384 Plus, Perkin Elmer Cat. #6008289) was loaded by adding 4 μL of the mixed Antibody Solution to empty wells using a single channel repeater. Using a multi-channel repeater, 16 μL lysate was added per well, and any bubbles that were formed were popped with 20 μL pipette tips and Kimwipe edges. In column 10, triplicates of each control were prepared. In wells A10, B10, and C10, buffer control was prepared by adding 16 μL Lysis Buffer and 4 μL Detection Buffer. In wells D10, E10, and F10, cryptate control was prepared by adding 16 μL Lysis Buffer, 2 μL Detection Buffer, and 2 μL 1× anti-IRAK4-k Antibody Solution. In wells G10, H10, and I10, a negative control was prepared by adding 16 μL Lysis Buffer and 4 μL mixed Antibody Solution. The plate was sealed with a clear seal and covered with an aluminum lid. The plate was spun down at 800 g for 5 min and incubated in the dark at room temperature overnight. The next day, the plate was spun down at 800 g for 5 min. The samples were analyzed by a plate reader (Envision, PerkinElmer) using the Desnor 384 HTRF program.

Row | Structure (SMILES) | ALE THP1 HTRF YMIN [%] | DC50 [nM]
1 | N[C@@H]1C[C@@H](F)CN(c2ccn3ncc(C(=O)Nc4cn([C@H]5CC[C@H](CCN6CCC7(CC6)CN(c6cccc(C8CCC(=O)NC8=O)c6)C7)CC5)nc4C(F)F)c3n2)C1 (stereo partly shown) [Compound P-26] | 7 | 15
2 | N[C@@H]1C[C@@H](F)CN(c2ccn3ncc(C(=O)Nc4cn(C5CCN(CCN6CCN(c7ccc(C8CCC(=O)NC8=O)cc7)CC6)CC5)nc4C(F)F)c3n2)C1 (stereo partly drawn) [Compound P-27, 5-((3R,5R)-3-Amino-5-fluoropiperidin-1-yl)-N-(3-(difluoromethyl)-1-(1-(2-(4-(4-(2,6-dioxopiperidin-3-yl)phenyl)piperazin-1-yl)ethyl)piperidin-4-yl)-1H-pyrazol-4-yl) pyrazolo[1,5-a]pyrimidine-3-carboxamide trihydrochloride] | 16 | 10
3 | N[C@@H]1C[C@@H](F)CN(c2ccn3ncc(C(=O)Nc4cn([C@H]5CC[C@H](CCN6CCC[C@H](c7ccc(C8CCC(=O)NC8=O)cc7)C6)CC5)nc4C(F)F)c3n2)C1 (stereo partly shown) [Compound P-28] | >95 | > 10000
4 | N[C@@H]1C[C@@H](F)CN(c2ccn3ncc(C(=O)Nc4cn([C@H]5CC[C@H](C(=O)N[C@H]6CC[C@@H](c7ccc(C8CCC(=O)NC8=O)nc7)CC6)CC5)nc4C(F)F)c3n2)C1 (stereo partly shown) [Compound P-30] | >95 | > 10000
5 | N[C@@H]1C[C@@H](F)CN(c2ccn3ncc(C(=O)Nc4cn([C@H]5CC[C@H](C(=O)N[C@H]6CC[C@@H](c7ccc(C8CCC(=O)NC8=O)cn7)CC6)CC5)nc4C(F)F)c3n2)C1 (stereo partly shown) [Compound P-31] | >95 | > 10000

Second part, the compound after the results:

Row | ALE THP1 HTRF YMIN [%] | DC50 [nM] | Structure (SMILES)
6 | 21 | 5 | N[C@@H]1C[C@@H](F)CN(c2ccn3ncc(C(=O)Nc4cn([C@H]5CC[C@H](C(=O)NC6CCN(c7ccc(C8CCC(=O)NC8=O)cn7)CC6)CC5)nc4C(F)F)c3n2)C1 (stereo partly drawn) [Compound P-32, N-[3-(Difluoromethyl)-1-[4-[[1-[5-(2,6-dioxo-3-piperidyl)-2-pyridyl]-4-piperidyl]carbamoyl]cyclohexyl]pyrazol-4-yl]-5-[(3R,5R)-3-amino-5-fluoro-1-piperidyl]pyrazolo[1,5-a]pyrimidine-3-carboxamide hydrochloride]
7 | 22 | 3 | N[C@@H]1C[C@@H](F)CN(c2ccn3ncc(C(=O)Nc4cn([C@H]5CC[C@H](C(=O)N[C@H]6CC[C@H](c7ccc(C8CCC(=O)NC8=O)cn7)CC6)CC5)nc4C(F)F)c3n2)C1 (stereo partly shown) [Compound P-33]
8 | 13 | 5 | N[C@@H]1C[C@@H](F)CN(c2ccn3ncc(C(=O)Nc4cn([C@H]5CC[C@H](C(=O)N[C@H]6CC[C@H](c7ccc(C8CCC(=O)NC8=O)nc7)CC6)CC5)nc4C(F)F)c3n2)C1 (stereo partly shown) [Compound P-34]

Source: US20260317333A1, “Heteroaryl Compounds as Ligand Directed Degraders of IRAK4” (Celgene Corporation, priority 2023, published 2026)
